Legend:
Human lung tryptase = assay: Ki determination, human lung tryptase (Tosyl-Gly-Pro-Arg-pNA substrate); assay type: biochemical; settings: 50 mM Tris-HCl pH 8.0, 37° C., 1 nM tryptase, 320 μM GPR-pNA; read-out: Experimentally Determined Ki, Tryptase
Experimental: (§1) Protease inhibition was assayed according to published procedures with minor modifications using various proteases and specific chromogenic peptide p-nitroanilide substrates. Assays were performed in Costar ultra-low cluster 96-well microtiter plate (Costar Corning Corp., Cambridge Mass.). Each protease was incubated with various concentrations of the test compound for 15 min. at 37° C. or as otherwise indicated, in specific assay buffer, and the residual activity was then measured by addition of the substrate. p-Nitroaniline produced by the proteolysis was determined by measuring the change in absorbance at 405 nm on a SpectraMAX 340 plate reader (Molecular devices, Sunnyvale, Calif.).
(§2) 1. The inhibition constant, Ki is calculated from individual data points using the equation for a tight-binding inhibitor (See Beith, "Proteinase Inhibitors-Proceedings of 2nd Int. Res. Conference", Fritz, et al. eds, New York, p.4463-4469 (1974)):
(§3) vi /vo [((Ki '+[I]+[E]o)^2 -4 [I]o
(§4) [E]o)^1/2 (Ki '+[I]o -[E]o)]/2[E]o
(§5) where Ki ' is apparent inhibition constant; vi and vo are the inhibited and uninhibited rates, respectively; [I]o and [E]o are the total concentrations of inhibitor and enzyme, respectively.
(§6) [note: [E]o is determined by active site titration of enzyme]
(§7) The Ki values are obtained by correcting Ki ' values for the effect of substrate concentration according to: [formula]
(§8) 2. Other inhibition data (Ki >>[E]o), the Ki is calculated from using the equations for a competitive inhibitor: [formula]
Human lung tryptase purchased from Cortex Biochem (San Leandro, Calif.) was purified further on a Superdex 200 gel-filtration column. The active-site concentration of the enzyme was determined by spectrophotometric titration with 4-nitrophenyl 4'-guanidinobenzoate according to Schwartz, et al., J. Immunol., 114, 2304-2311 (1990). Tryptase activity was measured according to the procedures of Schwartz, et al., J. Biol. Chem., 261, 7372-7379 (1986) (See also, Schwartz, L. B., Methods In Enzymology, 244, 88 (1994)) with minor modifications, using Tosyl-Gly-Pro-Arg-p-nitroanilide ("GPR-pNA", Sigma Chemical Co., St. Louis, Mo., T-1637) as a chromogenic substrate. The reaction was performed in 50 mM Tris-HCl, pH 8.0, containing 150 mM NaCl and 0.02% Triton X-100 at 37° C. in Costar ultra-low cluster 96-well microtiter plates (Costar Corning Corp., Cambridge, Mass.). The amount of pNA produced by tryptase was determined by measuring the change in absorbance at 405 nm on a SpectraMAX 340 plate reader (Molecular devices, Sunnyvale, Calif.). The Km for the substrate was determined by Lineweaver-Burk analysis from initial velocities of substrate hydrolysis. The inhibition assay was carried out in a total volume of 200 μL. Tryptase (30 μL- final concentration 1 nM) was incubated with various concentrations of sample compound (50 μL) to be tested in the above assay buffer for 5 min. The reaction was started by the addition of substrate GPR-pNA (40 μL-final concentration 320 μM), and the residual activity was measured after 15 min. of incubation. The inhibition constant, Ki, was determined by fitting the inhibition data to a two-site competitive binding equation using data analysis program GraphPad PRISM (GraphPad Software, Inc., San Diego, Calif.).
(§9) The inhibition constant (Ki) of the test compounds against each proteolytic enzyme was determined according to Zitnik et al., Biochem. Biophys. Res. Commun. 232, 687-697 (1997)).

Human plasma thrombin = target: T1, Human plasma thrombin (Homo sapiens, UniProt P00734); assay: Ki determination, human plasma thrombin (H-D-Phe-Pip-Arg-pNA); assay type: biochemical; settings: 50 mM Tris-HCl, pH 8.3, 100 mM NaCl, 1% BSA; read-out: Experimentally Determined Ki, Thrombin
T1 construct: from tissue; host or cells: human plasma
Experimental: as §1, §2, §3, §4, §5, §6, §7, §8
Human plasma thrombin activity was determined by using H-D-Phe-Pip-Arg-pNA in 50 mM Tris-HCl, pH 8.3, 100 mM NaCl, 1% BSA (See Lottenberg, et al. Meth. Enzymol. 80, 341-361 (1981)).
as §9

[1] = target: T2, Bovine Pancreatic Chymotrypsin (Bos taurus, UniProt P00766); assay: Ki determination, bovine pancreatic chymotrypsin (N-Suc-Ala-Ala-Pro-Phe-pNA); assay type: biochemical; settings: 100 mM Tris-HCl, pH 7.8, 10 mM CaCl2; read-out: Experimentally Determined Ki, Chymotrypsin
T2 construct: from tissue; host or cells: bovine pancreas
Experimental: as §1, §2, §3, §4, §5, §6, §7, §8
Bovine Pancreatic Chymotrypsin activity was determined by using N-Suc-Ala-Ala-Pro-Phe-pNA in 100 mM Tris-HCl, pH 7.8, 10 mM CaCl2 (See Delmar, et al., J. Biochem. 85, 157-162 (1979)).
as §9

[2] = test system: antigen-induced airway hyperresponsiveness in guinea pigs; assay: Guinea pig airway hyperresponsiveness inhibition (ovalbumin-sensitized, histamine bronchoprovocation); assay type: in vivo, guinea pig (male Hartley); settings: 1 mg/kg, i.t., 1 hour before antigen challenge; histamine response 6 h after antigen
Experimental: The compounds of the invention were tested for their ability to inhibit hyperresponsiveness in a guinea pig airway hyperresponsiveness screen according to the following protocol:
Male Hartley guinea pigs (Charles River Laboratories Inc., Wilmington, Mass.) were sensitized to ovalbumin by intraperitoneal injection with a 0.5 mL solution of 10 μg ovalbumin and 10 mg aluminum hydroxide in phosphate-buffered saline. […] Seven to nine weeks after the initial injection, the animals were used to evaluate antigen-induced guinea pig airway responses.
In order to evaluate antigen-induced airway hyperresponsiveness in guinea pigs, a baseline histamine bronchoprovocation was initially conducted in unrestrained animals. Guinea pigs (450-600 g) were placed in a whole body plethysmograph (Buxco Electronics, Troy, N.Y.). The animals were exposed to 5 second bursts of histamine aerosol generated by a DeVilbis ultrasonic nebulizer (Somerset, Pa.). […] Three days after the histamine baseline determination, the guinea pigs were again placed in the whole body plethysmograph and challenged with a 3 second aerosolized burst of 0.1% ovalbumin in phosphate-buffered saline. Six hours after antigen exposure, the development of hyperresponsiveness was evaluated by repeating the histamine bronchoprovocation. Comparisons between treatment groups were based on areas under the histamine dose response curves (AUC).
Test compounds were administered by intratracheal instillation at a dose of 1 mg/kg in PBS (pH 7.2), 1 hour before the antigen challenge. After anesthetizing a guinea pig with inhaled methoxyflurane, an endotracheal tube (18 gauge Teflon® sheath) was visually passed into the trachea with the aid of a fiberoptic light source. Test agents (or PBS for control animals) was dosed through the tube followed by a bolus of air to facilitate dispersion.
Two-way analysis of variance (ANOVA) followed by the Fisher PLSD test was used to evaluate areas under the curve ("AUC") for histamine dose responses in guinea pigs. Significance was accepted for p<0.05.

SMILES	Ki (Human lung tryptase) [µM]	Ki (Human plasma thrombin) [µM]	Ki [1] [µM]	Hyperresponsiveness AUC % Inhibition [2] [%]
N=C(N)c1cccc(C(=O)NCc2ccc(OCCCCCOc3ccc(CNC(=O)c4cccc(C(=N)N)c4)cc3)cc2)c1 [Example 55, 1,5-Bis-{4-[(3-carbamimidoyl-benzenecarbonylamino)-methyl]-phenoxy}-pentane]	0.01	> 100	> 100	107
N=C(N)c1ccc(C(=O)NCc2ccc(OCCCCCCOc3ccc(CNC(=O)c4ccc(C(=N)N)cc4)cc3)cc2)cc1 [Example 56, 1,6-Bis-{4-[(4-carbamimidoyl-benzenecarbonylamino)-methyl]-phenoxy}-hexane]		> 100	> 100	62
N=C(N)c1cccc(S(=O)(=O)NCc2ccc(OCCCCCOc3ccc(CNS(=O)(=O)c4cccc(C(=N)N)c4)cc3)cc2)c1 [Example 41, 1,5-Bis-{4-[(3-carbamimidoyl-benzenesulfonylamino)-methyl]-phenoxy}-pentane]	0.08	> 100	> 100	95
N=C(N)c1cccc(S(=O)(=O)NCc2ccc(OCCCCOc3ccc(CNS(=O)(=O)c4cccc(C(=N)N)c4)cc3)cc2)c1 [Example 47, 1,4-Bis-{4-[(3-carbamimidoyl-benzenesulfonylamino)-methyl]-phenoxy}-butane]	0.03	> 100	> 100	29
N=C(N)c1ccc(C(=O)NCc2ccc(OCCCCCOc3ccc(CNC(=O)c4ccc(C(=N)N)cc4)cc3)cc2)cc1 [Example 54, 1,5-Bis-{4-[(4-carbamimidoyl-benzenecarbonylamino)-methyl]-phenoxy}-pentane]		> 100	> 100	53
N=C(N)c1ccc2[nH]c(CC(=O)NCc3ccc(OCCCCCOc4ccc(CNC(=O)Cc5nc6cc(C(=N)N)ccc6[nH]5)cc4)cc3)nc2c1 [Example 108]	0.009	> 100	> 100	68
N=C(N)c1ccc(S(=O)(=O)NCc2ccc(OCCCOc3ccc(CNS(=O)(=O)c4ccc(C(=N)N)cc4)cc3)cc2)cc1 [Example 50, 1,3-Bis-{4-[(4-carbamimidoyl-benzenesulfonylamino)-methyl]-phenoxy}-propane]	0.8	> 100	6.3	50
N=C(N)c1cccc(S(=O)(=O)NCc2ccc(COCc3ccc(CNS(=O)(=O)c4cccc(C(=N)N)c4)cc3)cc2)c1 [Example 53, 1,3-Bis-{4-[(3-carbamimidoyl-benzenesulfonylamino)-methyl]-phenyl}-2-oxapropane]	0.1	> 100	> 100	
N=C(N)c1cccc(C(=O)NCc2cccc(OCCCCCOc3cccc(CNC(=O)c4cccc(C(=N)N)c4)c3)c2)c1 [Example 77, 1,5-Bis-{3-[(3-carbamimidoyl-benzenecarbonylamino)-methyl]-phenoxy}-pentane]	0.01	> 100	> 100	
N=C(N)c1cccc(C(=O)NCc2ccc(OCCCCCCCOc3ccc(CNC(=O)c4cccc(C(=N)N)c4)cc3)cc2)c1 [Example 59, 1,7-Bis-{4-[(3-carbamimidoyl-benzenecarbonylamino)-methyl]-phenoxy}-heptane]	0.08	> 100	> 100	
N=C(N)c1ccc(C(=O)NCc2ccc(OCCCCOc3ccc(CNC(=O)c4ccc(C(=N)N)cc4)cc3)cc2)cc1 [Example 60, 1,4-Bis-{4-[(4-carbamimidoyl-benzenecarbonylamino)-methyl]-phenoxy}-butane]	0.0002	> 100	> 100	
N=C(N)c1cccc(S(=O)(=O)NCc2ccc(OCCCCCCCOc3ccc(CNS(=O)(=O)c4cccc(C(=N)N)c4)cc3)cc2)c1 [Example 45, 1,7-Bis-{4-[(3-carbamimidoyl-benzenesulfonylamino)-methyl]-phenoxy}-heptane]	0.8	> 100	> 100	

From patent US6221914A, “Sulfonamide bridging compounds that inhibit tryptase activity” (Array Biopharma Inc., priority 1998, dated 2001)
